Results as given in patent US8735623B2, “Process for preparing creatine amides” (priority 2009, dated 2014).
Where two headings read alike, the source gives them in different places.

How the values were obtained:
[1] = in vivo; cited from earlier work
[2] = Stability in artificial gastric secretion (HPLC); details: 37° C.
Protocol: 10 mg of amides of creatine was dissolved in 20 mL of artificial gastric secretion for study of amides of creatine stability, solution aliquot was place into vial for chromatograph. Vial with solution was place into chromatograph autosampler at 37° C. Initial concentration of amides of creatine and its relative change in gastric secretion were determined by HPLC at indicated temperature (Table 3).

[3] = 37° C.
Protocol: Stability of amides of creatine in human plasma was assessed by relative change in concentration of amides of creatine in plasma. 1 mL of plasma was mixed with 0.2 mL of amides of creatine aqueous solution with concentration 5 mg/mL, a mixture was kept at a temperature of 37° C., aliquot of volume 0.2 mL was drawn in fixed time ranges, mixed with 0.02 mL of trifluoroacetic acid 10% solution, a precipitate was centrifuged at […] for 20 min. A concentration of amides of creatine in supernatant was determined by HPLC method (Table 4).

[4] = tested on: rat model of focal ischemia; details: 30 min ischemia, 48 hour reperfusion, male Wistar rat
Protocol: Research of the neuroprotective action of amides of creatine was carried out in a rat model of focal ischemia (male, Wistar, 12÷14 weeks, 220÷240 g). Anesthesia was performed by sodium thiopental 60 mg/kg. A solution of amides of creatine in saline was administered intravenous to the first group of animals 45 min before ischemia, saline was administered to a control group, a solution of amides of creatine in saline was administered intragastric per os by an enteral tube a day before ischemia to the second group of animals 3 times per day, saline was administered to a control group.
Standard time of ischemia constituted 30 min, standard time of reperfusion constituted 48 hour. The animals were sacrificed, brain slices with thickness of 2 mm were produced for assessing a brain damage volume. The damage area was determined by staining with […] followed by data acquisition and analysis of stained slice digital images. A brain damage coefficient, i.e. a relation of damage area to the slice surface was calculated (Table 1).

[5] = tested on: rat model of focal ischemia; details: score 18 max, 3 min
Protocol: Cerebral ischemia was induced by the method mentioned above. A solution of amides of creatine or saline was administered intravenous. […] Testing the animals was carried out before ischemia, on a second and third days after ischemia-reperfusion at a fixed time for exclusion of behavioral changes by means of circadian rhythm. Spontaneous activity, symmetrical limb movement, climbing onto vertical reticulated wall, body proprioreception, touching to vibriss were assessed. A maximum point by assigned score was 18 (lack of neurological deficit), minimum—3 (severe neurological deficit).

[6] = 20-30 g per day for a few days; cited from earlier work
[7] = i./v., 150 mg/kg, 45 min before ischemia
[8] = per os, 3 × 150 mg/kg, a day before ischemia

Compound	Stability in gastric secretion ([2]; 0 hour) [%]	Stability in gastric secretion ([2]; 1 hour) [%]	Stability in gastric secretion ([2]; 3 hours) [%]	Stability in gastric secretion ([2]; 5 hours) [%]	Stability in human plasma ([3]; 0 hour) [%]	Stability in human plasma ([3]; 0.25 hour) [%]	Stability in human plasma ([3]; 0.5 hours) [%]	Stability in human plasma ([3]; 1 hour) [%]	further results
CN(CC(=O)O)C(=N)N [creatine, Creatine]	–	–	–	–	–	–	–	–	Extent of absorbtion from gastro-intestinal tract [1]: 1 to 14%
CC(=O)O.CCOC(=O)CNC(=O)CNC(=O)CN(C)C(=N)N [Agent 2, Creatinyl-Glycyl-Glycine Ethyl Ester Acetate]	100	100	98	98	100	100	97	90	Brain damage coefficient ([4]; i./v., 200 mg/kg, 45 min before ischemia): 12.1 ± 2.0%
CC(=O)O.CC(C)OC(=O)CNC(=O)CN(C)C(=N)N [Agent 1, Creatinyl-Glycine iso-Propyl Ester Acetate]	100	100	99	97	100	100	99	91	Neurological condition by Garcia score, 2nd day after ischemia ([5]; 150 mg/kg intravenous): 10 ± 2; Neurological condition by Garcia score, 3rd day after ischemia ([5]; 150 mg/kg intravenous): 15 ± 2; Neurological condition by Garcia score, 1 day before ischemia ([5]; 150 mg/kg intravenous): 18 ± 0; Brain damage coefficient [4, 7]: 11.2 ± 2.3%; Brain damage coefficient [4, 8]: 14.2 ± 3.0%
CN(CC(=O)O)C(=N)N.O [creatine monohydrate]	–	–	–	–	–	–	–	–	Increasing of total creatine content in human skeletal muscles [6]: more than 20%
CC(=O)O.CC(=O)O.CCOC(=O)[C@@H](N)CCCCNC(=O)CN(C)C(=N)N [Agent 4, N^ε-Creatinyl-Lysine Ethyl Ester Diacetate]	100	100	98	97	100	100	100	89	Neurological condition by Garcia score, 2nd day after ischemia ([5]; 100 mg/kg intravenous): 14 ± 1; Neurological condition by Garcia score, 3rd day after ischemia ([5]; 100 mg/kg intravenous): 17 ± 2; Neurological condition by Garcia score, 1 day before ischemia ([5]; 100 mg/kg intravenous): 18 ± 0; Brain damage coefficient ([4]; i./v., 100 mg/kg, 45 min before ischemia): 13.3 ± 3.2%; Brain damage coefficient ([4]; per os, 3 × 100 mg/kg, a day before ischemia): 15.2 ± 2.9%
CCNC(=O)C(Cc1ccccc1)NC(=O)CN(C)C(=N)N.Cl (stereo not shown) [Agent 5, Creatinyl-Phenylalanine Ethylamide Hydrochloride]	100	100	98	99	100	100	97	87	Neurological condition by Garcia score, 2nd day after ischemia ([5]; 50 mg/kg intravenous): 11 ± 1; Neurological condition by Garcia score, 3rd day after ischemia ([5]; 50 mg/kg intravenous): 14 ± 1; Neurological condition by Garcia score, 1 day before ischemia ([5]; 50 mg/kg intravenous): 18 ± 0; Brain damage coefficient ([4]; i./v., 50 mg/kg, 45 min before ischemia): 14.0 ± 1.1%
CCNC(=O)CNC(=O)CN(C)C(=N)N.O=C(O)C(O)C(O)C(=O)O [Agent 3, Creatinyl-Glycine Ethylamide Tartrate]	100	100	97	98	100	100	95	90	Neurological condition by Garcia score, 2nd day after ischemia ([5]; 150 mg/kg intravenous): 11 ± 2; Neurological condition by Garcia score, 3rd day after ischemia ([5]; 150 mg/kg intravenous): 16 ± 1; Neurological condition by Garcia score, 1 day before ischemia ([5]; 150 mg/kg intravenous): 18 ± 0; Brain damage coefficient [4, 7]: 12.0 ± 1.7%; Brain damage coefficient [4, 8]: 13.9 ± 3.3%
CC(=O)O.CCOC(=O)CCCNC(=O)CN(C)C(=N)N [Agent 6, Creatinyl-γ-Aminobutyric acid Ethyl Ester acetate]	100	100	99	99	–	–	–	–	Neurological condition by Garcia score, 2nd day after ischemia ([5]; 45 mg/kg intravenous): 14 ± 0; Neurological condition by Garcia score, 3rd day after ischemia ([5]; 45 mg/kg intravenous): 16.0 ± 1.1; Neurological condition by Garcia score, 1 day before ischemia ([5]; 45 mg/kg intravenous): 18 ± 0; Brain damage coefficient ([4]; i./v., 45 mg/kg, 45 min before ischemia): 13.1 ± 1.0%
